Measured values published in patent US11884627B2, “Compounds and compositions for treating conditions associated with LPA receptor activity” (Lhotse Bio, Inc., priority 2022, dated 2024).
Where two headings read alike, the source gives them in different places.

Target: T1, human LPA1 (Homo sapiens, UniProt Q92633)
T1 construct: expressed in transfected cells; host or cells: CHO-K1
Assay: In vitro LPA1 calcium flux antagonist assay - Bioduro protocol
Type: cell-based
Settings: CHO-K1 cells overexpressing human LPA1 and G15a, LPA challenge at EC80
Experimental: In Vitro LPA1 Calcium Flux Antagonist Assay—Bioduro Protocol
CHO-K1 cells overexpressing human LPA1 and G15a were seeded at a total volume of 20 μL (15000 cells/well) into Matrigel pre-coated 384-well plates (corning −3764) and incubated at 37° C. After overnight incubation, the cells were serum starved for 4 h. Assays were performed in dye loading buffer containing 1× Fluo-8 AM (AAT Bioquest, 21080) and 2.5 mM probenecid (Thermo Fisher, 36400) in HBSS/20 mM Hepes. After cell starvation, the medium was replaced with 20 μL of dye loading buffer and incubated at 37° C., for 30 min. Then 5 μL of 5× compound titrated in dye loading buffer was added to the cells and incubated for 30 min followed by LPA challenge at EC80. Calcium mobilization was measured on a FLIPR Tetra (MSD). For LPA EC80 determination, starved cells were incubated with 20 μL of dye loading buffer for 1 h, then 5 μL of 5×LPA titrated in dye loading buffer was added to the cells. Calcium signals induced by LPA was monitors on a FLIPR.
Percentage inhibition is calculated using the following formula: % Inhibition=100%×(1−(mean RFU of test sample−mean RFU of DMSO)/(mean RFU of LPA control−mean RFU of DMSO)).
Table B3 and Table B4 show the biological activity of compounds in in vitro LPA1 Calcium flux antagonist assay—Bioduro protocol.

[1] = calcium mobilization on FLIPR Tetra, read-out: IC50
[2] = Table B3, read-out: Activity (IC50 class)

T1 sequence (Q92633 whole entry): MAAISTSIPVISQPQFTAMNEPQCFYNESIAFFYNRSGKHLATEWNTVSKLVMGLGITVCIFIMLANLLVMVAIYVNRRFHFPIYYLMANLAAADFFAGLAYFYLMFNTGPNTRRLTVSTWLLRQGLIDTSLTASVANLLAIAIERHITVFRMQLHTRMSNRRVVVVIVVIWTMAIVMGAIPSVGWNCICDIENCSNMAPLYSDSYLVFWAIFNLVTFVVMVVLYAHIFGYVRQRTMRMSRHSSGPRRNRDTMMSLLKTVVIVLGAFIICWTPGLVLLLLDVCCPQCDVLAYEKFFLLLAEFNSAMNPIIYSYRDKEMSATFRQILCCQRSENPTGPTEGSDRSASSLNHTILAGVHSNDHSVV

With `COc1c(C(C)=O)ccc(-c2ccc(NC3(C(=O)O)CCOCC3)cc2COC2CCCC2)c1C` [Compound 189] the IC50 [1] was 52.5 nM and the IC50 [2] was < 100 nM.
Work on `COc1cc2c(c(-c3ccc(NC4(C(=O)O)CCOCC4)cc3COC3CCCC3)c1)CCO2` [Compound 198] yielded an IC50 [1] of 232 nM and an IC50 [2] of 100 to 1000 nM.
Compound `CCOc1c(C)ncc(-c2ccc(NC3(C(=O)O)CC(F)(F)C3)cc2COC2CC2)c1C` [Compound 414] has an IC50 [1] of 112 nM and an IC50 [2] of 100 to 1000 nM.
With `CCOc1cncc(-c2ccc(NC3(C(=O)O)CCOCC3)cc2COC2CC2)c1C(F)F` [Compound 403] the IC50 [1] was 23.1 nM and the IC50 [2] was < 100 nM.
`CCOc1cncc(-c2ccc(NC3(C(=O)O)CCC(F)(F)CC3)cc2COC2CC2)c1C(F)F` [Compound 406] was tested, and the IC50 [1] was 20 nM and the IC50 [2] was < 100 nM.
`CCOc1cc(OC)cc(-c2ccc(NC3(C(=O)O)CCOCC3)cc2COC2CC2)c1` [Compound 316] was tested, and the IC50 [1] was 1080 nM and the IC50 [2] was > 1000 nM.
In the case of `CCOc1cncc(-c2ccc(C3(C(=O)O)CC3)cc2COC2CCCC2)c1C(F)F` [Compound 412], the IC50 [1] is reported as 538 nM and the IC50 [2] is reported as 100 to 1000 nM.
For `COc1cc(OC)nc(-c2c(C)cc(NC3(C(=O)O)CCOCC3)cc2COC2CCCC2)c1` [Compound 170], the IC50 [1] was 1500 nM and the IC50 [2] was > 1000 nM.
For `COc1cc(-c2c(COC3CCCC3)cc(NC3(C(=O)O)CCOCC3)cc2C(F)(F)F)cc(OC)c1C` [Compound 275], the IC50 [1] was 229 nM and the IC50 [2] was 100 to 1000 nM.
With `COc1cc(-c2c(Cl)cc(NC3(C(=O)O)CCOCC3)cc2COC2CCCC2)cc(OC)c1C` [Compound 184] the IC50 [1] was 33.2 nM and the IC50 [2] was < 100 nM.
`CCOc1cc(-c2ccc(NC3(C(=O)O)CCOCC3)cc2COC2CC2)cc(OC)c1C` [Compound 329] was tested, and the IC50 [1] was 61.9 nM and the IC50 [2] was < 100 nM.
`CCOc1c(C)c(OC)cc(-c2ccc(NC3(C(=O)O)CC3)cc2COC2CC2)c1F` [Compound 361] was tested, and the IC50 [1] was 75.6 nM and the IC50 [2] was < 100 nM.
`O=C(O)C1(Nc2ccc(-c3cccc(OC4CC4)c3C(F)F)c(COC3CC3)c2)CCC(F)(F)CC1` [Compound 389] was tested, and the IC50 [1] was 0.772 nM and the IC50 [2] was < 100 nM.
Work on `COc1cc(-c2ccc(NC3(C(=O)O)CCN(C(C)=O)CC3)cc2COC2CCCC2)cc(OC)c1C` [Compound 139] yielded an IC50 [1] of 353 nM and an IC50 [2] of 100 to 1000 nM.
In the case of `CCOC1CC(Nc2ccc(-c3cc(OC)c(C)c(OC)c3)c(COC3Cc4ccccc4C3)c2)(C(=O)O)C1` (centres unmarked) [Compound 137], the IC50 [1] is reported as 45.2 nM and the IC50 [2] is reported as < 100 nM.
For `CCOc1cc(OC)cc(-c2ccc(NC3(C(=O)O)CCOCC3)cc2COCC(C)C)c1F` [Compound 395], the IC50 [1] was 7.94 nM and the IC50 [2] was < 100 nM.
Work on `COCC(=O)N1CCC(Nc2cc(C)c(-c3cc(OC)cc(OC)c3)c(COC3CCCC3)c2)(C(=O)O)CC1` [Compound 176] yielded an IC50 [1] of 883 nM and an IC50 [2] of 100 to 1000 nM.
`COc1cc(-c2ccc(NC3(C(=O)O)CC(O)C3)cc2COC2Cc3ccccc3C2)cc(OC)c1C` (centres unmarked) [Compound 131] showed an IC50 [1] of 190 nM and an IC50 [2] of 100 to 1000 nM.
In the case of `COc1cc(-c2ccc(NC3(C(=O)O)CCOCC3)cc2COC2CC2)c(C(F)F)c(OC)c1C` [Compound 310], the IC50 [1] is reported as 6.93 nM and the IC50 [2] is reported as < 100 nM.
`CCOC1CC(Nc2ccc(-c3cc(OC)c(C)c(OC)c3C)c(COC3CCCC3)c2)(C(=O)O)C1` (centres unmarked) [Compound 214] was tested, and the IC50 [1] was 58.9 nM and the IC50 [2] was < 100 nM.
`COC(=O)N1CCCC(Nc2cc(C)c(-c3cc(OC)cc(OC)c3)c(COC3CCCC3)c2)(C(=O)O)C1` (centres unmarked) [Compound 211] was tested, and the IC50 [1] was > 10000 nM and the IC50 [2] was > 1000 nM.
With `COc1cc(OC)cc(-c2ccc(NC3(C(=O)O)CCOCC3)cc2COC2COc3ccccc32)c1` (single isomer, unassigned) [Compound 159] the IC50 [1] was > 10000 nM and the IC50 [2] was > 1000 nM.
With `COc1cc(-c2ccc(NC3(C(=O)O)CCCOC3)cc2COC2CCCC2)c(C)c(OC)c1C` (single isomer, unassigned) [Compound 200] the IC50 [1] was 772 nM and the IC50 [2] was 100 to 1000 nM.
For `COc1cc(OC)nc(-c2c(C)cc(NC3(C(=O)O)CCOCC3)cc2COC2CCCC2)n1` [Compound 178], the IC50 [1] was 1320 nM and the IC50 [2] was > 1000 nM.
`CCOc1c(F)ccc(-c2ccc(NC3(C(=O)O)CCOCC3)cc2COC2CCCC2)c1F` [Compound 266] gave an IC50 [1] of 142 nM and an IC50 [2] of 100 to 1000 nM.
For `COc1cc(-c2ccc(NC3(C(=O)O)CCOCC3)cc2COC2Cc3ccccc3C2)cc(OC)c1C` [Compound 111, 4-({2-[(2,3-dihydro-1H-inden-2-yloxy)methyl]-3′,5′-dimethoxy-4′-methyl-[1,1′-biphenyl]-4-yl}amino)oxane-4-carboxylic acid], the IC50 [1] was 19.8 nM and the IC50 [2] was < 100 nM.
In the case of `COc1cc(OC)c(F)c(-c2ccc(OC3(C(=O)O)CCOCC3)cc2COC2CCCC2)c1` [Compound 222], the IC50 [1] is reported as 167 nM and the IC50 [2] is reported as 100 to 1000 nM.
In the case of `COc1cc(-c2ccc(NC3(C(=O)O)CC3)cc2COC2Cc3ccccc3C2)c(C)c(OC)c1C(C)=O` [Compound 122], the IC50 [1] is reported as 112 nM and the IC50 [2] is reported as 100 to 1000 nM.
`COc1cc(-c2ccc(NC3(C(=O)O)CCOCC3)cc2COCC2CCC2)c(F)c(OC)c1C` [Compound 353] was tested, and the IC50 [1] was 8.39 nM and the IC50 [2] was < 100 nM.
With `COc1cc(-c2ccc(NC3(C(=O)O)CC(OC)C3)cc2COC2CCCC2)c(C)c(OC)c1C` (centres unmarked) [Compound 197] the IC50 [1] was 12.5 nM and the IC50 [2] was < 100 nM.
For `CCc1c(-c2ccc(NC3(C(=O)O)CCOCC3)cc2COC2CCCC2)cc(OC)c(C)c1OC` [Compound 203], the IC50 [1] was 26 nM and the IC50 [2] was < 100 nM.
In the case of `CCOc1cc(OC)cc(-c2ccc(NC3(C(=O)O)CCOCC3)cc2COC2CCCC2)c1F` [Compound 287], the IC50 [1] is reported as 2.46 nM and the IC50 [2] is reported as < 100 nM.
In the case of `COc1cc(-c2c(F)cc(NC3(C(=O)O)CCOCC3)cc2COC2CCCC2)cc(OC)c1C` [Compound 147, 4-((2-((cyclopentyloxy)methyl)-6-fluoro-3′,5′-dimethoxy-4′-methyl-[1,1′-biphenyl]-4-yl)amino)tetrahydro-2H-pyran-4-carboxylic acid], the IC50 [1] is reported as 20.9 nM and the IC50 [2] is reported as < 100 nM.
For `COc1cc(OC2CC2)c(F)c(-c2ccc(NC3(C(=O)O)CCC(F)(F)CC3)cc2COC2CC2)c1` [Compound 346], the IC50 [1] was 7.24 nM and the IC50 [2] was < 100 nM.
`COc1cc(OC)c(C)c(-c2c(F)cc(NC3(C(=O)O)CCOCC3)cc2COC2CCCC2)c1` [Compound 180] was tested, and the IC50 [1] was 39.7 nM and the IC50 [2] was < 100 nM.
In the case of `COc1cc(-c2ccc(NCC(=O)O)cc2COC2Cc3ccccc3C2)cc(OC)c1C` [Compound 108], the IC50 [1] is reported as 1880 nM and the IC50 [2] is reported as > 1000 nM.
`COc1cc(-c2c(COC3CCCC3)cc(NC3(C(=O)O)CCOCC3)cc2OC)cc(OC)c1C` [Compound 175] was tested, and the IC50 [1] was 175 nM and the IC50 [2] was 100 to 1000 nM.
In the case of `O=C(O)C1(Nc2ccc(-c3cccc(OC4CC4)c3F)c(COC3CCCC3)c2)CCOCC1` [Compound 265, 4-((2-((cyclopentyloxy)methyl)-3′-cyclopropoxy-2′-fluoro-[1,1′-biphenyl]-4-yl)amino)tetrahydro-2H-pyran-4-carboxylic acid], the IC50 [1] is reported as 12 nM and the IC50 [2] is reported as < 100 nM.
`CCOc1c(C)ccc(-c2ccc(NC3(C(=O)O)CCOCC3)cc2COC2CC2)c1C` [Compound 313] was tested, and the IC50 [1] was 5.93 nM and the IC50 [2] was < 100 nM.
For `COCc1cccc(-c2ccc(NC3(C(=O)O)CCOCC3)cc2COC2CC2)c1C(F)F` [Compound 311], the IC50 [1] was 148 nM and the IC50 [2] was 100 to 1000 nM.
`CCOC(=O)N1CCC(Nc2cc(C)c(-c3cc(OC)cc(OC)c3)c(COC3CCCC3)c2)(C(=O)O)CC1` [Compound 155] was tested, and the IC50 [1] was 252 nM and the IC50 [2] was 100 to 1000 nM.
`COc1cc(-c2ccc(NC3(C(=O)O)CCOCC3)cc2COC2CCCC2)cc(OC)c1C(C)=O` [Compound 124] was tested, and the IC50 [1] was 91.6 nM and the IC50 [2] was < 100 nM.
With `COc1cc(-c2ccc(OC3(C(=O)O)CCOCC3)cc2COC2CCCC2)c(F)c(OC)c1C` [Compound 209, 4-((2-((cyclopentyloxy)methyl)-2′-fluoro-3′,5′-dimethoxy-4′-methyl-[1,1′-biphenyl]-4-yl)oxy)tetrahydro-2H-pyran-4-carboxylic acid] the IC50 [1] was 15.5 nM and the IC50 [2] was < 100 nM.
For `COc1cc(OC)cc(-c2c(C)cc(NC3(C(=O)O)CCOCC3)cc2COC2CCCC2)c1` [Compound 156], the IC50 [1] was 162 nM and the IC50 [2] was 100 to 1000 nM.
In the case of `CCOc1cccc(-c2ccc(NC3(C(=O)O)CCOCC3)cc2COC2CCCC2)c1C(F)F` [Compound 244], the IC50 [1] is reported as 2.73 nM and the IC50 [2] is reported as < 100 nM.
With `COc1cc(OC)cc(-c2c(C)cc(NC3(C(=O)O)Cc4ccccc4C3)cc2COC2CCCC2)c1` [Compound 188] the IC50 [1] was 2730 nM and the IC50 [2] was > 1000 nM.
With `CCOc1cccc(-c2ccc(NC3(C(=O)O)CCOCC3)cc2COC2CC2)c1C(F)(F)F` [Compound 358] the IC50 [1] was 5.37 nM and the IC50 [2] was < 100 nM.
For `COc1cc(-c2ccc(OC3(C(=O)O)CCOCC3)cc2COC2CC2)c(C)c(OC)c1C` [Compound 354], the IC50 [1] was 35.5 nM and the IC50 [2] was < 100 nM.
For `COc1cc(-c2ccc(NC3(C(=O)O)CCOCC3)cc2COC2CC2)cc(OC2CC2)c1C` [Compound 341], the IC50 [1] was 214 nM and the IC50 [2] was 100 to 1000 nM.
With `COc1cc(OC)c(C(F)F)c(-c2ccc(NC3(C(=O)O)CCOCC3)cc2COC2CC2)c1` [Compound 302] the IC50 [1] was 85.2 nM and the IC50 [2] was 100 to 1000 nM.
For `COc1cc(OC)cc(-c2ccc(NC3(C(=O)O)CCOCC3)cc2COC2CCCC2)c1` [Compound 146], the IC50 [1] was 77.2 nM and the IC50 [2] was < 100 nM.
In the case of `CCOc1c(C)ccc(-c2ccc(NC3(C(=O)O)CC3)cc2COC2CC2)c1C` [Compound 368], the IC50 [1] is reported as 40.7 nM and the IC50 [2] is reported as < 100 nM.
